In US20140061616A1, “ORGANIC SEMICONDUCTOR MATERIAL, COATING LIQUID CONTAINING THE MATERIAL, AND ORGANIC THIN FILM TRANSISTOR” (IDEMITSU KOSAN CO., LTD., priority 2010, published 2014):

What was measured:
[1] = Evaluation of solubility: temperature of toluene required to dissolve the compound at 0.4 mass %; format: physicochemical; conditions: concentration of 0.4 mass %
[2] = Storage stability of organic semiconductor material: carrier mobility after storage in air; format: physicochemical; conditions: deposited transistor stored for 9 days in air
Description: An organic thin film transistor was obtained in the same manner as in Example 17, except that pentacene (see the following formula) was used as the material for forming the organic semiconductor layer instead of the compound (A-3).
The field-effect mobility μ of holes in the organic thin film transistor was calculated in the same manner as in Example 17, and found to be […]. The carrier mobility calculated after storing the organic thin film transistor for 9 days in air was […].

Which “Dissolution temperature (° C.) in toluene” value [1] does the source give for CCCCCCCCCCCCc1ccc2c(c1)sc1c2ccc2c1ccc1c3ccc(CCCCCCCCCCCC)cc3sc12 [Comparative compound (1)] here?
Its value is 90 °C.

Which results are given for c1ccc2c(c1)sc1c2ccc2c1ccc1c3ccccc3sc12 [Comparative compound (2)]?
Dissolution temperature (° C.) in toluene [1]: Insoluble; Dissolution temperature (° C.) in toluene ([1]; listed as comparative compound (2)): not sufficiently dissolved

What does the source list for CCCCCc1ccc2c(c1)sc1c2ccc2c1ccc1c3ccc(CCCCC)cc3sc12 [Compound A-3]?
carrier mobility after storage [2]: 1.1 cm^2/Vs; deterioration in carrier mobility on storage [2]: a deterioration in carrier mobility was not observed; Dissolution temperature (° C.) in toluene [1]: 80 °C

With c1ccc2cc3cc4cc5ccccc5cc4cc3cc2c1 [pentacene] as the molecule, how does the “carrier mobility after storage” value [2] read?
Its value is 1.3×10^3 cm^2/Vs.
